From US10683267B1, “Antidiabetic compounds” (King Abdulaziz University, priority 2019, dated 2020) come the findings set out here.

“Also recorded” adds a separate entry of the source. Where two headings read alike, the source gives them in different places.

Assay [1] deals with diabetic mice. As to the kind of experiment: Oral glucose tolerance test (OGTT) after single dose in diabetic mice. The class given is in vivo. The settings on record: Table 6; relative potency, single dose; B.G. = blood glucose. How it is done:
(§1) The Biochemical and Research Ethical Committee of King Abulaziz University (Jeddah, Saudi Arabia), in accordance with the NIH guidelines, approved all procedures, and the animals received human care during the experimental period. Experiments were carried out using adult male Swiss albino mice (SWR), of 8-9 weeks age and 30-35 g weight. Animals were purchased from the animal house of the King Fahed Medical Research center (KFMRC), Jeddah, Saudi Arabia. Mice were kept at a constant temperature of 24-25° C. and were subjected to a controlled 12 h light-dark cycle; they had free access to water and pelleted diet ad libitum.
(§2) Nicotinamide (210 mg/kg b.w.), dissolved in saline, was injected intraperitoneally 15 min before the intraperitoneal injection of Streptozotocin (STZ) (Sigma, 180 mg/kg b.w.), which was freshly prepared in citrate buffer (pH 4.5). Control animals received both vehicles. During the experimental period, animals' food intake and body weight gain were monitored once a week.
Oral glucose tolerance tests were performed in 14 h overnight fasted diabetic mice that were pretreated with a single oral dose of the tested compounds. […] The drugs were suspended in carboxymethyl cellulose (CMC)-Na (1% in distilled water) and the dosing volume was adjusted at 10 mL/kg body weight of the mouse. Then an oral glucose load was administered (2 g/kg) 2 h after drug treatment. Blood glucose levels were determined using the Accu-check Go® (Roche Diagnostics, Michigan, USA). Samples were collected just before drug administration (fasting blood glucose), then at 2 h after drug treatment (immediately before glucose loading). Then blood sample collection was continued at 20, 40, 60 and 120 min intervals after glucose loading.
Animals were distributed between three categories of groups. Each group is composed of six animals (n=6) […] as follows:
Category 1: One group of animals were 14 h overnight-fasted normoglycemic mice and vehicle-treated (1% CMC-Na) at a dose of 10 ml/kg.
Category 2: Another group of animals was overnight fasted diabetic mice received the vehicle (1% CMC-Na) at a dosing volume of 10 ml/kg and served as a negative control.
Category 4: Animals of these groups were overnight fasted diabetic mice received the tested compounds at a dose of 50 mg/kg in 1% CMC (volume of 10 ml/kg).

In assay [2] the target is T1, DPP-IV enzyme (Homo sapiens, UniProt P27487).
T1 construct: purchased Biovision (Milpitas, Calif., USA)
As to the kind of experiment: In vitro DPP-IV inhibition assay (Biovision kit, fluorescence). The class given is biochemical. The following applies: for % Inhibition @ 100 nM / inhibition at 0.1 µM: compound at 100 nM; for DPP-4 enzyme inhibition activity, in words: SAR discussion; for % Inhibition (values marked *: inhibition at 1000 nM): compound at 1000 nM. How it is done:
DPP-IV inhibition assay was conducted using a kit purchased from Biovision (Milpitas, Calif., USA). Briefly, DPP-IV enzyme was diluted with Tris buffer and pipetted 50 μl into glass mini-cells. […] Finally a volume of 25 μl of DPP-IV substrate was added into each tube. The fluorescence generated from hydrolysis of the substrate was read at Ex/Em=360/460 nm using Modulus® single tube multimode reader (Promega, USA). Baseline fluorescence was recorded before incubation (R1) and 20 min after incubation (R2).
The standard DPP-IV inhibitor drug sitagliptin employed as positive control. […] Sigmoidal concentration-response curves for DPP-IV % inhibition versus log concentration were plotted using Graphpad prism software, version 5.00 (GraphPad Software, Inc. La Jolla, Calif., USA).

The subject of assay [3] is diabetic mice. As to the kind of experiment: Oral glucose tolerance test (OGTT) after multiple doses (6 days) in diabetic mice. The class given is in vivo. The settings on record: Table 6; relative potency, 6 days; B.G. = blood glucose. How it is done:
as §1, §2
(§3) On the same groups that received the single dose treatment, the tested compounds were given daily by oral gavage for six consecutive days. On day 6, the overnight fasted diabetic mice were pretreated with the 6th oral dose of the tested compounds. Two hours later, an oral glucose was loaded (2 g/kg/10 ml b.w.). Blood glucose levels were determined using the Accu-check Go®. Samples were collected just before drug administration (Fasting Blood glucose), then 2 h after drug treatment and before glucose administration. Samples collection was continued at 20, 40, 60 and 120 min intervals after glucose loading.

In assay [4] the test system is diabetic mice. Kind of assay: Fasting blood glucose of diabetic mice treated daily for 6 consecutive days. The format is in vivo. The settings on record: 50 mg/kg oral daily. How it is done:
as §1, §2, §3
The oral glucose tolerance test (OGTT) was performed over six days on diabetic mice. The glucose level was monitored daily (Table 3). The results were analyzed for activities after a single dose (Table 4) and after the 6th dose of the drug (Table 5).

The mark [5] stands for this setting: Table 2, head prints no unit, nM per Table 6, read-out: IC50.
The mark [6] stands for this setting: read-out: enzymatic inhibition value / inhibitory activity (IC50).

T1 sequence (P27487 whole entry, species assumed): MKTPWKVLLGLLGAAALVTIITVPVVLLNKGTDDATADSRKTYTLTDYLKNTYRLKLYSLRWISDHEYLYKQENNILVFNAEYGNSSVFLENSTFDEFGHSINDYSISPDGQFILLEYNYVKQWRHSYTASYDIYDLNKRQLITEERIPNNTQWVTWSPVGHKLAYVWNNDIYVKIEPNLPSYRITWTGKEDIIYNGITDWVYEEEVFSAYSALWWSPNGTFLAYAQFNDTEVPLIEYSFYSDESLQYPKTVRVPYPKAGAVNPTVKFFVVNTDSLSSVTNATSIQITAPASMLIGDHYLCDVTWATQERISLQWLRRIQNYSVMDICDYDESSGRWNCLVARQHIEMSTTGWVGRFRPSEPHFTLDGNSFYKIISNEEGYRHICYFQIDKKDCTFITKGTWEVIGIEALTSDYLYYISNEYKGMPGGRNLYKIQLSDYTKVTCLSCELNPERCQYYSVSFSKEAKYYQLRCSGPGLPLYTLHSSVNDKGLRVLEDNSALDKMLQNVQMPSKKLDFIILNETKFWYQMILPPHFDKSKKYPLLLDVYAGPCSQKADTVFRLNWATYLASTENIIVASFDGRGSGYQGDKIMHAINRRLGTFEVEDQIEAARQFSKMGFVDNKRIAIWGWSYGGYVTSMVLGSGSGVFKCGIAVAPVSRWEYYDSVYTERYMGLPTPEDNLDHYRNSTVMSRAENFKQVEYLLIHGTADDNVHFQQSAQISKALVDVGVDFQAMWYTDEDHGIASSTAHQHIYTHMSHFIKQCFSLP

Consider `Cc1ccccc1NC(=O)CNC12CC3CC(CC(O)(C3)C1)C2` [Compound 2], for which the “R.P. to Vildagliptin (Single Dose)” value in assay [1] came to 0.42. Also, the IC50 in assay [2] (setting [5]) was determined as 10.1 nM; in assay [2] (Table 6, read-out: IC50) it was 10.1 nM; in assay [2] (setting [6]) it was 10.3 nM. In assay [2], the “% Inhibition @ 100 nM” value was 86.82%. The “R.P. to Vildagliptin (6 Days)” value in assay [3] is 1.2.

Turning to `Cc1ccc(NC(=O)CNC23CC4CC(CC(O)(C4)C2)C3)cc1` [Compound 3], in assay [2], the “DPP-4 enzyme inhibition activity, in words” value is reported as “much weaker enzyme inhibition activities” and the “% Inhibition @ 100 nM” value is recorded as 28.38%.

`COc1ccccc1NC(=O)CNC12CC3CC(CC(O)(C3)C1)C2` [Compound 5]: the “R.P. to Vildagliptin (Single Dose)” value in assay [1] is given as 0.66. Moreover, in assay [2], the “DPP-4 enzyme inhibition activity, in words” value is recorded as “weakened the enzyme inhibition activities” and the “% Inhibition (values marked *: inhibition at 1000 nM)” value is reported as 93.48* %. For the same molecule, the IC50 in assay [2] (setting [5]) turned out to be 94.1 nM. For the same molecule, the IC50 in assay [2] (Table 6, read-out: IC50) was determined as 94.1 nM. For the same molecule, the “R.P. to Vildagliptin (6 Days)” value in assay [3] turned out to be 0.26.

`O=C(CNC12CC3CC(CC(O)(C3)C1)C2)Nc1ccccc1C(F)(F)F` [Compound 14]: the “R.P. to Vildagliptin (Single Dose)” value in assay [1] worked out at 0.12. Moreover, the “DPP-4 enzyme inhibition activity, in words” value in assay [2] was “generally weak”. Besides, the IC50 is 41.3 nM in assay [2] (setting [5]) and 41.3 nM in assay [2] (Table 6, read-out: IC50). In addition, the “% Inhibition @ 100 nM” value in assay [2] is 84.81%. Further, in assay [3], the “R.P. to Vildagliptin (6 Days)” value is “Increased B.G”.

With `O=C(CNC12CC3CC(CC(O)(C3)C1)C2)Nc1cccc(O)c1` [Compound 17], the “R.P. to Vildagliptin (Single Dose)” value in assay [1] turned out to be 0.26. For the same molecule, in assay [2], the “DPP-4 enzyme inhibition activity, in words” value is “very weak activity” and the “% Inhibition @ 100 nM” value came out at 44.44%. For the same molecule, in assay [2] (setting [5]), the IC50 stood at 212 nM. For the same molecule, the IC50 in assay [2] (Table 6, read-out: IC50) is more than 100 nM. The “R.P. to Vildagliptin (6 Days)” value in assay [3] is recorded as 1.42.

As to `N#Cc1ccccc1NC(=O)CNC12CC3CC(CC(O)(C3)C1)C2` [Compound 19], the “R.P. to Vildagliptin (Single Dose)” value in assay [1] stood at 0.23. In addition, in assay [2], the “DPP-4 enzyme inhibition activity, in words” value is recorded as “exception to nitrile performance” and the “% Inhibition (values marked *: inhibition at 1000 nM)” value was 99.06* %. Also, the IC50 in assay [2] (setting [5]) turned out to be 267 nM. Besides, the IC50 in assay [2] (Table 6, read-out: IC50) is more than 100 nM. Also, in assay [3], the “R.P. to Vildagliptin (6 Days)” value was 0.87.

In the case of `N#Cc1cccc(NC(=O)CNC23CC4CC(CC(O)(C4)C2)C3)c1` [Compound 26, N-(3-cyanophenyl)-2-[(3-hydroxyadamantan-1-yl)amino]acetamide], the “R.P. to Vildagliptin (Single Dose)” value in assay [1] turned out to be 0.32. The “DPP-4 enzyme inhibition activity, in words” value in assay [2] is “high affinity towards the enzyme”; in assay [2] (listed as GLP-26), “high level of potency both in vitro and in vivo”. Besides, the IC50 in assay [2] (setting [5]) is 0.58 nM; in assay [2] (Table 6, read-out: IC50), 0.58 nM; in assay [2] (setting [6]) it was less than 1 nM. In addition, testing at 0.1 µM in assay [2] gave an inhibition of 83.1%. The “R.P. to Vildagliptin (6 Days)” value in assay [3] came out at 1.3.

With `O=C(CNC12CC3CC(CC(O)(C3)C1)C2)Nc1ccccc1F` [Compound 27], in assay [2], the “DPP-4 enzyme inhibition activity, in words” value is given as “generally weak” and the “% Inhibition (values marked *: inhibition at 1000 nM)” value is on record as 67.04* %.

For `Cc1cccc(NC(=O)CNC23CC4CC(CC(O)(C4)C2)C3)c1` [Compound 30], in assay [2], the “DPP-4 enzyme inhibition activity, in words” value is recorded as “much weaker enzyme inhibition activities” and the “% Inhibition (values marked *: inhibition at 1000 nM)” value is 70.92* %.

In the case of `O=C(CNC12CC3CC(CC(O)(C3)C1)C2)Nc1cccc(F)c1` [Compound 31], the “R.P. to Vildagliptin (Single Dose)” value in assay [1] was 0.37. In assay [2], the “DPP-4 enzyme inhibition activity, in words” value is listed as “generally weak” and the “% Inhibition @ 100 nM” value was found to be 56.23%. In addition, in assay [2] (setting [5]), the IC50 was 62.3 nM. For the same molecule, in assay [2] (Table 6, read-out: IC50), the IC50 stood at 62.3 nM. Also, in assay [3], the “R.P. to Vildagliptin (6 Days)” value was 0.85.

`O=C(CNC12CC3CC(CC(O)(C3)C1)C2)Nc1ccc(Cl)cc1` [Compound 43]: the “R.P. to Vildagliptin (Single Dose)” value in assay [1] came to 0.26. Besides, in assay [2], the “DPP-4 enzyme inhibition activity, in words” value was “weak inhibitors at high concentration” and the “% Inhibition @ 100 nM” value came out at 51.64%. The IC50 in assay [2] (setting [5]) came to 102 nM. In assay [2] (Table 6, read-out: IC50), the IC50 is more than 100 nM. In addition, the “R.P. to Vildagliptin (6 Days)” value in assay [3] stood at 1.39.

Turning to `O=C(CNC12CC3CC(CC(O)(C3)C1)C2)NCc1ccccc1` [Compound 53], the IC50 in assay [2] (setting [5]) came to 7.41 nM. In assay [2], the inhibition (usually the relative decrease from the control value, in per cent) at 0.1 µM was 86.8%.

`O=C(CNC12CC3CC(CC(O)(C3)C1)C2)NCc1ccc(F)cc1` [Compound 54]: the “R.P. to Vildagliptin (Single Dose)” value in assay [1] is “Increased B.G”. Further, the IC50 in assay [2] (setting [5]) was determined as 87.1 nM; in assay [2] (Table 6, read-out: IC50) it was 87.1 nM. Further, the “% Inhibition @ 100 nM” value in assay [2] is on record as 57.12%. Also, in assay [3], the “R.P. to Vildagliptin (6 Days)” value is on record as “Increased B.G”.

`O=C(CNC12CC3CC(CC(O)(C3)C1)C2)NCCc1ccccc1` [Compound 59]: in assay [1], the “R.P. to Vildagliptin (Single Dose)” value amounted to 0.52. Besides, the “% Inhibition (values marked *: inhibition at 1000 nM)” value in assay [2] is 67.04* %. Besides, the “R.P. to Vildagliptin (6 Days)” value in assay [3] was 0.83.

Turning to `O=C(CNC12CC3CC(CC(O)(C3)C1)C2)Nc1ccc(O)cc1` [Compound 60], the “R.P. to Vildagliptin (Single Dose)” value in assay [1] was determined as 0.67. In addition, in assay [2], the “DPP-4 enzyme inhibition activity, in words” value is “very weak activity” and the “% Inhibition (values marked *: inhibition at 1000 nM)” value is on record as 20.11* %. The “R.P. to Vildagliptin (6 Days)” value in assay [3] is given as 0.67.

Take `O=C(CNC12CC3CC(CC(C3)C1)C2)Nc1cc(Cl)ccn1` [Compound 117]: in assay [2], the “DPP-4 enzyme inhibition activity, in words” value is on record as “high DPP-4 inhibition; also recorded: best functionality in enzyme inhibition activity” and the “% Inhibition @ 100 nM” value is on record as 83.14%. Besides, in assay [2] (setting [5]), the IC50 came to 5.42 nM.

As for `Cc1cccc(C)c1NC(=O)CNC12CC3CC(CC(C3)C1)C2` [Compound 120], in assay [2], the “DPP-4 enzyme inhibition activity, in words” value was “much weaker enzyme inhibition activities” and the “% Inhibition (values marked *: inhibition at 1000 nM)” value is listed as 62.84* %.

Turning to `N#C[C@@H]1CCCN1C(=O)CNC12CC3CC(CC(O)(C3)C1)C2` [Vildagliptin, reference compound], the “Fasting blood glucose level, Day 1” value in assay [4] (Day 1) is given as 205.20 ± mg/dL. In addition, the “Fasting blood glucose level, Day 2” value in assay [4] (Day 2) was 119.40 ± mg/dL. Also, the “Fasting blood glucose level, Day 3” value in assay [4] (Day 3) was 169.20 ± mg/dL. In assay [4] (Day 4), the “Fasting blood glucose level, Day 4” value was found to be 197.80 mg/dL. For the same molecule, the “Fasting blood glucose level, Day 5” value in assay [4] (Day 5) is reported as 244.60 mg/dL. The “Fasting blood glucose level, Day 6” value in assay [4] (Day 6) came out at 165.00 mg/dL. Moreover, in assay [3], the “R.P. to Vildagliptin (6 Days)” value is recorded as 1.
